Values quoted from earlier work as cited in patent publication US20260144771A1, “Use of Triheptanoin Oil for Primary-Specific Pyruvate Dehydrogenase Complex (PDC) Deficiency” (University of Pittsburgh - Of the Commonwealth System of …, priority 2022, published 2026).
Values belong to the compound of their own block, whether it stands above or below them.

How the values were obtained:
PDC = PDC (Homo sapiens, UniProt P10515); conditions: read-out: Ki for end-product inhibition of PDC
[1] = subjects with other mitochondrial disorders such as MELAS
[2] = a case of pyruvate carboxylase deficiency
[3] = tested on: PDC and 2-oxoglutarate dehydrogenase activities; conditions: chronic epilepsy mouse model
[4] = subjects with FAO disorders
[5] = human, in vivo

Ki (PDC): 0.005 to 0.01 mM
Compound: CC(=O)SCCNC(=O)CCNC(=O)[C@H](O)C(C)(C)COP(=O)(O)OP(=O)(O)OC[C@H]1O[C@@H](n2cnc3c(N)ncnc32)[C@H](O)[C@@H]1OP(=O)(O)O [acetyl-CoA]

Ki (PDC): 3 to 4 mM
Compound: CCC(=O)SCCNC(=O)CCNC(=O)[C@H](O)C(C)(C)COP(=O)(O)OP(=O)(O)OC[C@H]1O[C@@H](n2cnc3c(N)ncnc32)[C@H](O)[C@@H]1OP(=O)(O)O [propionyl-CoA]

Compound: O=C(O)C(Cl)Cl [DCA, dichloroacetate]
neuropathy [1]: associated with toxic neuropathy

Compound: CCCCCCC(=O)OCC(COC(=O)CCCCCC)OC(=O)CCCCCC [triheptanoin]
biochemical outcomes [2]: rapid and significant improvement of biochemical outcomes
most commonly reported side effect: GI distress, share of cases: ≥ 10 % of cases
effect on PDC and 2-oxoglutarate dehydrogenase activities [3]: prevented reduction
incorporation of 13C derived from 13C-glucose in TCA cycle intermediates [3]: partially corrected the reduced incorporation
biochemical and physical outcomes before and after treatment [4]: significant improvement in cardiomyopathy and decreased frequency and severity of rhabdomyolysis

Compound: Cc1ncc(C[n+]2csc(CCO)c2C)c(N)n1 [Thiamine, thiamine]
adverse side-effects [5]: has not been reported to have adverse side-effects
